From patent US20260167656A1, “PHOSPHORAMIDATE COMPOUNDS AND USES THEREOF” (ALLORION THERAPEUTICS INC, priority 2022, published 2026)

Legend:
[1] = system: non-small cell lung cancer cell line H460; test: H460 proliferation assay in the presence of 3 uM ASP9521 (AKR1C3 specific inhibitor); assay type: cell-based, human; details: H460 cells, CellTiter-Glo, 72 hours, in the presence of 3 uM ASP9521 added 4 hours prior to compounds; read-out: CTG H460: Avg IC50 (nM) [Assay Condition: ASP9521]
Method in brief: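 H460 cells pre-incubated 24 h, then exposed to compounds for 72 h at 37 °C, 5% CO2. Viability read by CellTiter-Glo. ASP9521 (3 uM, AKR1C3 inhibitor) added 4 h before compounds.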

[2] = system: non-small cell lung cancer cell line H460; test: In vitro human cancer cell line cytotoxicity (proliferation) assay in H460, CellTiter-Glo, 72 hours; assay type: cell-based; details: DMSO condition (no AKR1C3 inhibitor), read-out: CTG H460: Avg IC50 (nM) [Assay Condition: DMSO]
Method in brief: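 H460 cells were seeded at 3×10^3 per well and grown 24 h at 37 °C, 5% CO2 before compound addition from 10 mM DMSO stocks. After 72 h further incubation, viability was measured by CellTiter-Glo, and IC50 values in nM were derived from the proliferation data.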

[3] = Homo sapiens, NCI-H460, 72 h, H460 cells

| SMILES | IC50 [1] | IC50 ([2]; H460 cells) | IC50 [2, 3] | IC50 ([2]; Homo sapiens, NCI-H460, H460 cells) |
| --- | --- | --- | --- | --- |
| O=[N+]([O-])c1cc2c(cc1Oc1ccccc1-c1ccccc1)C(OP(=O)(N1CC1)N1CC1)CC2 (centres unmarked) [Example 197] | 1760 nM | ≥ 100 nM | – | – |
| O=C(c1cccc(Oc2cc3cc(COP(=O)(N4CC4)N4CC4)oc3cc2[N+](=O)[O-])c1)N1CCC(F)(F)C1 [Example 545] | 970 nM | < 10 nM | – | – |
| O=[N+]([O-])c1cc2c(cc1Oc1ccc(-c3ccccc3)nc1)C(OP(=O)(N1CC1)N1CC1)CC2 (centres unmarked) [Example 518] | 746 nM | < 10 nM | – | – |
| O=[N+]([O-])c1ccc2c(c1Oc1cccc(OCC(F)(F)F)c1)CCC2OP(=O)(N1CC1)N1CC1 (racemic) [Example 473] | 329 nM | < 10 nM | – | – |
| CC(OP(=O)(N1CC1)N1CC1)c1cc(Oc2ccc(C(=O)N(C)C)cc2)c([N+](=O)[O-])cc1Cl (centres unmarked) [Example 9] | 1720 nM | – | < 10 nM | – |
| COc1cncc(Oc2c([N+](=O)[O-])ccc3c2CC[C@H]3OP(=O)(N2CC2)N2CC2)c1 [Example 462] | 917 nM | < 10 nM | – | – |
| O=C1c2ccc(Oc3c([N+](=O)[O-])ccc4c3CCC4OP(=O)(N3CC3)N3CC3)cc2CN1C1CC1 (centres unmarked) [Example 56] | 447 nM | – | < 10 nM | – |
| O=[N+]([O-])c1ccc2c(c1Oc1cccc(-c3noc(C4CC4)n3)c1)CCC2OP(=O)(N1CC1)N1CC1 (centres unmarked) [Example 91] | > 10000 nM | ≥ 100 nM | – | – |
| O=[N+]([O-])c1ccc2c(c1Oc1ccc(F)c(OC3CCCC3)c1)CCC2OP(=O)(N1CC1)N1CC1 (centres unmarked) [Example 478] | 1690 nM | < 10 nM | – | – |
| O=[N+]([O-])c1ccc2c(c1Oc1cccc(OC3CC3)c1)CC[C@H]2OP(=O)(N1CC1)N1CC1 [Example 467] | 4160 nM | < 10 nM | – | – |
| CC(OP(=O)(N1CC1)N1CC1)c1cc(Oc2ccc(C(=O)N(C)C)cc2)c([N+](=O)[O-])cc1F (centres unmarked) [Example 8] | 1790 nM | – | < 10 nM | – |
| O=C(c1cc(Oc2c([N+](=O)[O-])ccc3c2CC[C@@H]3OP(=O)(N2CC2)N2CC2)ccc1F)N1CC(F)(F)C1 [Example 258] | 2060 nM | < 10 nM | – | – |
| CC(OP(=O)(N1C[C@H]1C)N1C[C@H]1C)c1ccc([N+](=O)[O-])c(Oc2cccc(C(=O)N(C)C)c2)c1 (some centres unmarked) [Example 210] | 294 nM | – | < 10 nM | – |
| CCc1nsc(-c2cccc(Oc3c([N+](=O)[O-])ccc4c3CC[C@@H]4OP(=O)(N3CC3)N3CC3)c2)n1 [Example 368] | 3360 nM | – | 10 to 50 nM | – |
| Cn1cc(-c2ccc(Oc3c([N+](=O)[O-])ccc4c3CCC4OP(=O)(N3CC3)N3CC3)cc2)ccc1=O (centres unmarked) [Example 61] | 1010 nM | 10 to 50 nM | – | – |
| O=C(c1cccc(Oc2c([N+](=O)[O-])ccc3c2CCC3OP(=O)(N2CC2)N2CC2)c1)N1C[C@H]2CC[C@@H](C1)O2 (some centres unmarked) [Example 249] | 1340 nM | – | < 10 nM | – |
| O=[N+]([O-])c1ccc2c(c1Oc1cccc(-n3cccn3)c1)CCC2OP(=O)(N1CC1)N1CC1 (centres unmarked) [Example 113] | 650 nM | – | < 10 nM | – |
| Cn1cnc(-c2cccc(Oc3c([N+](=O)[O-])ccc4c3CCC4OP(=O)(N3CC3)N3CC3)c2)cc1=O (centres unmarked) [Example 117] | 1030 nM | ≥ 100 nM | – | – |
| Cn1cnc(-c2cccc(Oc3c([N+](=O)[O-])ccc4c3CC[C@@H]4OP(=O)(N3CC3)N3CC3)c2)c1 [Example 345] | 2110 nM | – | – | < 10 nM |
| O=[N+]([O-])c1ccc2c(c1Oc1ccc(F)c(OC3CCOCC3)c1)CC[C@H]2OP(=O)(N1CC1)N1CC1 [Example 496] | 783 nM | – | < 10 nM | – |

| SMILES | IC50 [1] | IC50 ([2]; H460 cells) | IC50 [2, 3] | IC50 ([2]; Homo sapiens, NCI-H460, H460 cells) |
| --- | --- | --- | --- | --- |
| C[C@H](OP(=O)(N1CC1)N1CC1)c1cc2cc(Oc3cccc(C(=O)N4CCC(F)(F)C4)c3)c([N+](=O)[O-])cc2o1 [Example 558] | 3960 nM | 10 to 50 nM | – | – |
| O=[N+]([O-])c1cc2c(cc1Oc1ccc(-c3ccccc3)nc1)C(OP(=O)(N1CC1)N1CC1)CC2 (centres unmarked) [Example 192] | 1090 nM | – | < 10 nM | – |
| CC(OP(=O)(N1C[C@H]1C)N1C[C@H]1C)c1ccc([N+](=O)[O-])c(Oc2ccc(C(=O)N(C)C)cc2)c1 (some centres unmarked) [Example 216] | 3240 nM | < 10 nM | – | – |
| CC(OP(=O)(N1C[C@@H]1C)N1C[C@@H]1C)c1ccc([N+](=O)[O-])c(Oc2ccc(-c3ccccc3)cc2)c1 (some centres unmarked) [Example 217] | 1600 nM | – | < 10 nM | – |
| O=[N+]([O-])c1ccc2c(c1Oc1ccc(F)c(-n3ccc(F)n3)c1)CC[C@@H]2OP(=O)(N1CC1)N1CC1 [Example 442] | 667 nM | – | < 10 nM | – |
| C[C@H](OP(=O)(N1CC1)N1CC1)c1cc2cc(Oc3cccc(C(=O)N4CCC(F)(F)CC4)c3)c([N+](=O)[O-])cc2o1 [Example 563] | 2110 nM | < 10 nM | – | – |
| O=[N+]([O-])c1ccc2c(c1Oc1cccc(OC3CCC3)c1)CCC2OP(=O)(N1CC1)N1CC1 (racemic) [Example 459] | 845 nM | < 10 nM | – | – |
| CC(OP(=O)(N1C[C@@H]1C)N1C[C@@H]1C)c1ccc([N+](=O)[O-])c(Oc2ccc(-c3ccc(F)cn3)c(F)c2)c1 (some centres unmarked) [Example 221] | 1210 nM | – | < 10 nM | – |
| O=[N+]([O-])c1ccc2c(c1Oc1cccc(OC3CCCC3)c1)CC[C@H]2OP(=O)(N1CC1)N1CC1 [Example 470] | 1150 nM | < 10 nM | – | – |
| O=C(c1cccc(Oc2c([N+](=O)[O-])ccc3c2CCC3OP(=O)(N2CC2)N2CC2)c1)N1CCCOCC1 (centres unmarked) [Example 106] | 416 nM | < 10 nM | – | – |
| O=[N+]([O-])c1ccc2c(c1Oc1ccc(C(F)(F)F)nc1)CCC2OP(=O)(N1CC1)N1CC1 (centres unmarked) [Example 25] | 92.9 nM | – | < 10 nM | – |
| Cc1coc(-c2ccc(Oc3c([N+](=O)[O-])ccc4c3CC[C@@H]4OP(=O)(N3CC3)N3CC3)cc2)n1 [Example 291] | 1970 nM | – | < 10 nM | – |
| C[C@@H](OP(=O)(N1CC1)N1CC1)c1cc2cc(Oc3ccc4c(c3)OC(F)(F)O4)c([N+](=O)[O-])cc2o1 [Example 550] | 2510 nM | – | < 10 nM | – |
| Cc1noc(-c2ccc(Oc3c([N+](=O)[O-])ccc4c3CC[C@@H]4OP(=O)(N3CC3)N3CC3)cc2)n1 [Example 283] | 1460 nM | < 10 nM | – | – |
| CCC1CN1P(=O)(OCc1ccc([N+](=O)[O-])c(Oc2cccc(C(=O)N(C)C)c2)c1)N1CC1CC (centres unmarked) [Example 10] | 271 nM | – | < 10 nM | – |
| Cn1ccc2cc(Oc3c([N+](=O)[O-])ccc4c3CCC4OP(=O)(N3CC3)N3CC3)ccc21 (centres unmarked) [Example 384] | 1490 nM | – | < 10 nM | – |
| O=[N+]([O-])c1ccc2c(c1Oc1ccc(F)c(-c3ccc(F)cn3)c1)CCC2OP(=O)(N1CC1)N1CC1 (centres unmarked) [Example 328] | 4230 nM | < 10 nM | – | – |
| O=[N+]([O-])c1ccc2c(c1Oc1ccc(F)c(-c3nncs3)c1)CC[C@@H]2OP(=O)(N1CC1)N1CC1 [Example 363] | 584 nM | – | < 10 nM | – |
| O=[N+]([O-])c1ccc2c(c1Oc1ccc(-c3ncc(F)cn3)c(F)c1)CC[C@H]2OP(=O)(N1CC1)N1CC1 [Example 269, (R)-4-(3-fluoro-4-(5-fluoropyrimidin-2-yl)phenoxy)-5-nitro-2,3-dihydro-1H-inden-1-yl di(aziridin-1-yl)phosphinate] | 761 nM | – | 10 to 50 nM | – |
| O=[N+]([O-])c1ccc2c(c1Oc1ccc(-c3cccnc3)cc1)CCC2OP(=O)(N1CC1)N1CC1 (single isomer, unassigned) [Example 54] | 516 nM | < 10 nM | – | – |
